The record followed here is patent US9290529B2, “Carbonic anhydrase inhibitors and method of their production” (USTAV ORGANICKE CHEMIE A BIOCHEMIE AKADEMIE VED CESKE …, priority 2011, dated 2016).

In assay [1] the target is T1, human carbonic anhydrase IX (hCA IX) (Homo sapiens, UniProt Q16790).
T1 construct: Construct contained the extracellular CA domain (amino acid residues 139-390) cloned into the pMT/BiP/V5-His vector; His tag (from vector pMT/BiP/V5-His) (C); BiP secretion signal (from vector pMT/BiP/V5-His) (N); made in house; host or cells: Drosophila expression system (Invitrogen), insect cells, secreted into SF 900 II medium
Kind of assay: Colorimetric carbonic anhydrase inhibition assay (CO2 hydration, phenol red), hCA IX. To be noted: for Selectivity to hCA IX IC50 (hCA II)/IC50 (hCA IX): ratio of IC50 values. In kind it is biochemical. The protocol:
The compounds were assayed for inhibition activity of two isoforms of human carbonic anhydrase: hCA II and hCA IX. The human carbonic anhydrase II (HCA II) was purchased from Sigma Aldrich (Cat. No. C6165) in the form of lyophilized protein, which was dissolved before use in 10 mmol·l^−1 HEPES pH 7.0 to a concentration of 300 μmol·l^−1 and further diluted as required. Human carbonic anhydrase IX (HCA IX) was prepared by recombinant expression system in insect (Drosophila expression system, Invitrogen). […] This protein was further purified from media by chelating chromatography carrier His-Select Nickel Affinity Gel (Sigma, Cat No. P6611) and gel chromatography (Superdex 200 GL 30/300, GE Healthcare) according to the manufacturer's recommendations.
The principle of the method is based on measuring the rate of acidification of the solution that is observed as the color-shift of the acid-base-indicator (fenol red). The reaction was conducted in a glass tube placed in an ice bath (0° C., all stock solutions and enzymes were kept at the same temperature). […] This was followed by a CO2 saturation (stream flow 50 ml/min.) using a needle (18 G) up to color transition of fenol-red from red to yellow (typically 60 seconds by default). […] End point of reaction was determined by visual comparison with reference tube containing acid-base indicator (0.01% (wt./vol.) Fenol-red) and the pH adjusted to 7.0. […] Molar activity was calculated according to the formula:
[formula] where tB is the time of negative control without enzyme and tS is the time measured with an enzyme sample (and inhibitor), nprot is the number of moles of protein present in the sample. The value of IC50 for the inhibitor concentration corresponds inhibitor contraction required to decrease the specific activity to half of the value of non-inhibited enzyme. Selectivity towards CA IX inhibitor was calculated as the ratio of IC50 values for inhibition of HCA II against the value of IC50 for inhibition CA IX enzyme.

The subject of a further assay is CEM-DNR. Kind of assay: MTT cytotoxicity assay, CEM-DNR. In kind it is cell-based, human. To be noted: 72 h. An excerpt: (§1) One of the parameters used as the basis for colorimetric assays is the metabolic activity of viable cells. For example, a microtiter assay which uses the tetrazolium salt MTT is now widely used to quantitate cell proliferation and cytotoxicity (Hájduch et al., Cytotechnology, 19, 1996, 243-245). For instance, this assay is used in drug screening programs and in chemosensitivity testing. Because tetrazolium salts are cleaved only by metabolically active cells, these assays exclusively detect viable cells. In the case of the MTT assay, yellow soluble tetrazolium salt is reduced to a coloured water-insoluble formazan salt. After it is solubilized, the formazan formed can easily and rapidly be quantified in a conventional ELISA plate reader at 570 nm (maximum absorbancy). The quantity of reduced formazan corresponds to the number of vital cells in the culture.
(§2) All cells were purchased from the […] (ATCC), unless otherwise indicated: the CEM line are highly chemosensitive T-lymphoblastic leukemia cells, K562 cells were derived from patient with […] with bcr-abl translocation, A549 line is lung adenocarcinoma, HCT116 is colorectal tumor cell line and its p53 gene knock-down counterpart (HCT116p53−) is a model of human cancers with p53 mutation frequently associated with poor prognosis. The daunorubicin resistant subline of CEM cells (CEM-DNR bulk) and paclitaxel resistant subline K562-tax were selected in our laboratory by the cultivation of maternal cell lines in increasing concentrations of daunorubicine or paclitaxel, respectively (Noskova et al., Neoplasma 49, 2002, 418). The CEM-DNR bulk cells overexpress MRP-1 protein, while K562-tax cells overexpress P-glycoprotein, both proteins belong to family of ABC transporters and are involved in primary and/or acquired multidrug resistance phenomenon (Noskova et al., Neoplasma 49, 2002, 418). The cells were maintained in Nunc/Corning 80 cm^2 plastic tissue culture flasks and cultured in cell culture medium (DMEM/RPMI 1640 with 5 g/l glucose, 2 mM glutamine, 100 U/ml penicillin, 100 μg/ml streptomycin, 10% fetal calf serum, and NaHCO3).
(§3) This assay was performed according to Hajduch et al., Anti-Cancer Drugs 10, 1997, 1007. Cell suspensions were prepared and diluted according to the particular cell type and the expected target cell density (2 500-30 000 cells/well based on cell growth characteristics). Cells were added by pipette (80 μl) into 96-well microtiter plates. Inoculates were allowed a pre-incubation period of 24 h at 37° C. and 5% CO2 for stabilization. Four-fold dilutions, in 20-μl aliquots, of the intended test concentration were added to the microtiter plate wells at time zero. All test compound concentrations were examined in duplicate. Incubation of the cells with the test compounds lasted for 72 h at 37° C., in a 5% CO2 atmosphere at 100% humidity. At the end of the incubation period, the cells were assayed using MTT. Aliquots (10 μl) of the MTT stock solution were pipetted into each well and incubated for a further 1-4 h. After this incubation period the formazan produced was dissolved by the addition of 100 μl/well of 10% aq SDS (pH=5.5), followed by a further incubation at 37° C. overnight. The optical density (OD) was measured at 540 nm with a Labsystem iEMS Reader MF. Tumor cell survival (TCS) was calculated using the following equation: TCS=(ODdrug-exposed well/mean ODcontrol wells)×100%. The TCS50 value, the drug concentration lethal to 50% of the tumor cells, was calculated from appropriate dose-response curves.

The test system of the next assay is A549. Kind of assay: MTT cytotoxicity assay, A549. In kind it is cell-based, human. The conditions noted are these: 72 h.
From the text: as §1, §2, §3
On the technique in general: Tetrazolium dyes change colour on reduction, which living cells bring about.

The next assay relates to HCT116p53−/−. Kind of assay: MTT cytotoxicity assay, HCT116p53−/−. In kind it is cell-based, human. To be noted: 72 h.
From the text: as §1, §2, §3

A further assay has as its system BJ. Briefly: MTT cytotoxicity assay, BJ. To be noted: 72 h. In kind it is cell-based.
From the text: as §1, §3

The test system of the next assay is MRC-5. Briefly: MTT cytotoxicity assay, MRC-5. In kind it is cell-based. The conditions noted are these: MRC-5, MTT, 72 h.
From the text: as §1, §3

Setting [2] is: 0° C., HEPES pH 7.0, recombinant extracellular CA domain, read-out: IC50 (hCA IX).
The mark [3] stands for this setting: reference value in legend of FIG. 34, read-out: IC 50 CAIX (figure legend).

Where two headings read alike, the source gives them in different places.

As to “1-methylenesulfamide-1,7-dicarba-closo-dodecaborane [CB-19]”, the IC50 in assay [1] (setting [2]) was 2 µM; in the assay on CEM-DNR, 100 ± 0.1 µM; in the assay on A549, no less than 100 µM; in the assay on HCT116p53−/− it was 78.3 ± 6.5 µM; in the assay with BJ, no less than 100 µM; in the assay with MRC-5 it was no less than 100 µM. Besides, the “Selectivity to hCA IX IC50 (hCA II)/IC50 (hCA IX)” value (shortened to “Selectivity to hCA IX IC50”) in assay [1] was determined as 4.45.
With “1-methylenesulfamide-3,3′-commo-bis(1,2-dicarba-3-cobalta(III)-closo-dodecabor)ate (1-) [CB-5]”, the IC50 was 0.04 µM in assay [1] (setting [2]); no less than 100 µM with A549; 64.7 ± 9.1 µM in the assay with HCT116p53−/−; no less than 100 µM in the assay on BJ; 93.2 ± 7 µM with MRC-5. For the same substance, the “Selectivity to hCA IX IC50” value in assay [1] turned out to be 92.5.
For the substance “1-methylenesulfamide-9-phenyl-1,2-dicarba-closo-dodecaborane and 1-methylene-sulfamide-12-phenyl-1,2-dicarba-closo-dodecaborane [CB-8]”, the IC50 was 0.37 µM in assay [1] (setting [2]); 96.8 ± 3.3 µM in the assay with CEM-DNR; 96 ± 6.2 µM in the assay on A549; 86.6 ± 7.5 µM in the assay with HCT116p53−/−; no less than 100 µM with BJ; no less than 100 µM in the assay with MRC-5. Moreover, in assay [1], the “Selectivity to hCA IX IC50” value amounted to 6.59.
“1-methylensulfamide-1,2-dicarba-closo-dodekaborane [CB-1]”: the IC50 in assay [1] (setting [2]) is 0.37 µM; in the assay on CEM-DNR, 79 ± 8.9 µM; with A549, 94.9 ± 4.3 µM; in the assay with HCT116p53−/− it was 62 ± 2.7 µM; in the assay with BJ, no less than 100 µM; in the assay with MRC-5, 22.1 ± 1.1 µM.
In the case of “1-sulfamide-closo-1-carbadodecaborate (1-) [CB-3]”, the IC50 was 3.6 µM in assay [1] (setting [2]); no less than 100 µM with A549; no less than 100 µM with HCT116p53−/−; no less than 100 µM with BJ; no less than 100 µM in the assay with MRC-5.
As for “7-methylensulfamide-8-phenyl-(7,8-nido-dikarbaundekabor)ate (1-) [CB-6]”, the IC50 is 1.08 µM in assay [1] (setting [2]); 98.1 ± 3 µM in the assay on CEM-DNR; 77.8 ± 10.8 µM in the assay on A549; 24.2 ± 3.2 µM in the assay on HCT116p53−/−; no less than 100 µM with BJ. In addition, the “Selectivity to hCA IX IC50” value in assay [1] worked out at 36.2.
As for “7-methylensulfamide-(7,8-nido-dicarbaundekaborate) (1-) [CB-2]”, the IC50 in assay [1] (setting [2]) was 2.6 µM; with CEM-DNR, 96.7 ± 3.8 µM; with A549 it was no less than 100 µM; with BJ it was no less than 100 µM; in the assay on MRC-5, no less than 100 µM.
Consider “8-butyloxysulfamide-3,3′-commo-bis(decahydro-1,2-dicarba-3-cobalta(III)-closo-dodekabor)ate (1-) [CB-16]”, for which the IC50 was 0.28 µM in assay [1] (setting [2]); 0.28 µM in assay [1] (setting [3]); 95.1 ± 7.9 µM with CEM-DNR; no less than 100 µM in the assay on A549; 78.4 ± 3.9 µM in the assay with HCT116p53−/−; no less than 100 µM in the assay on BJ. The IC50 with MRC-5 was no less than 100 µM. Further, the “Selectivity to hCA IX IC50” value in assay [1] was 2.43.
In the case of “8-diethyleneoxysulfamide-3,3′-commo-bis(decahydro-1,2-dicarba-3-cobalta(III)-closo-dodekabor)ate (1-) [CB-17]”, the IC50 was 0.35 µM in assay [1] (setting [2]); no less than 100 µM in the assay on CEM-DNR; no less than 100 µM with A549; no less than 100 µM in the assay on HCT116p53−/−; no less than 100 µM in the assay with BJ; no less than 100 µM in the assay on MRC-5. Besides, the “Selectivity to hCA IX IC50” value in assay [1] was 34.3.
For the substance “8-ethylaminomethylsulfamide-8″-methoxy-3,3′-commo-bis(decahydro-1,2-dicarba-3-cobalta(III)-closo-dodecabor)ate (1-) [CB-15]”, the IC50 in assay [1] (setting [2]) was 2 µM; with CEM-DNR, 47.9 ± 7.6 µM; in the assay with A549, 33.7 ± 7.7 µM; with HCT116p53−/−, 17.6 ± 0.9 µM; in the assay with BJ, 65.2 ± 4.4 µM; in the assay on MRC-5 it was 27 ± 4.8 µM. In assay [1], the “Selectivity to hCA IX IC50” value was 7.00.
For the substance “8-methylensulfamide-8″-methoxy-3,3′-commo-bis(1,2-dicarba-3-cobalta(III)-closo-dodecabor)ate (1-) [CB-4]”, the IC50 in assay [1] (setting [2]) is 0.05 µM; in assay [1] (setting [3]) it was 0.05 µM; in the assay on CEM-DNR, 74.5 ± 2.8 µM; in the assay with A549 it was 95.5 ± 3.7 µM; in the assay with HCT116p53−/− it was 71.9 ± 3.4 µM; with BJ, 76.4 ± 3.3 µM. Further, in the assay with MRC-5, the IC50 was determined as 77.9 ± 1 µM. Moreover, in assay [1], the “Selectivity to hCA IX IC50” value came to 100.
“8-propylenesulfamide-7-phenyl-(7,8-nido-dicarbaundecabor)ate (1-) [CB-13]”: the IC50 in assay [1] (setting [2]) stood at 0.08 µM; in the assay on CEM-DNR it was 68 ± 1.6 µM; in the assay on A549 it was 86.5 ± 4.6 µM; in the assay with HCT116p53−/−, 61.3 ± 4.9 µM; in the assay on BJ it was 88.4 ± 6.1 µM; in the assay with MRC-5, 75.6 ± 1.5 µM. Moreover, in assay [1], the “Selectivity to hCA IX IC50” value is recorded as 48.8.
Take “9-sulfamide-9′-amine-2,2′-commo-bis(1,7,9-trikarba-2-ferra(II)-kloso-dodekabor)ane [CB-12]”: the IC50 was 1.49 µM in assay [1] (setting [2]); no less than 100 µM with CEM-DNR; no less than 100 µM in the assay with A549; no less than 100 µM with HCT116p53−/−; no less than 100 µM in the assay with BJ; no less than 100 µM in the assay with MRC-5. Moreover, in assay [1], the “Selectivity to hCA IX IC50” value amounted to 10.0.
In the case of “10-sulfamide-9′-amine-2,2′-commo-(1,7,10-tricarba-1′,7′,9′-tricarba-2-ferra (II)-closo-dodekabor)ane [CB-10]”, the IC50 was 9.68 µM in assay [1] (setting [2]); no less than 100 µM in the assay with CEM-DNR; no less than 100 µM in the assay on A549; no less than 100 µM in the assay with BJ; no less than 100 µM in the assay on MRC-5. Moreover, the “Selectivity to hCA IX IC50” value in assay [1] worked out at 7.0.
For “Di(methylenesulfamide)-1,7-dicarba-closo-dodecaborane [CB-20]”, the IC50 in assay [1] (setting [2]) was 0.49 µM; in the assay with A549 it was no less than 100 µM; in the assay with HCT116p53−/− it was no less than 100 µM; in the assay on BJ it was no less than 100 µM; in the assay with MRC-5, no less than 100 µM. Also, the “Selectivity to hCA IX IC50” value in assay [1] was 3.27.
